# No end group written: not given here.
# Columns and labels:
# S. aureus = assay type: cell-based; details: gram-positive bacteria, 18 hours incubation, Mueller Hinton
# Description: (§1) Complementary tests were carried out in order to determine the spectrum of activity of papillosin. The minimal bactericidal concentration (MBC) for each bacterial strain tested is determined as follows: The peptide is placed in a solution containing 0.01% acetic acid and 0.2% bovine serum albumin (BSA), then, serial dilutions of 2 in [sic—and?] 2 are realized in the same 0.01% solution of acetic acid and 0.2% BSA. 10 μl of each dilution are incubated in sterile 96-well plates (Becton Dickinson, USA, ref: 18572) in the presence of 100 μl of a bacterial suspension brought to an optical density of 0.001 at 600 nm in the Mueller Hinton environment (MHB, SIGMA, ref: M-9677).
# (§2) The bacterial growth is monitored after 18 hours of incubation under agitation. The MBC is determined by spreading out the content of the first three wells in which no bacterial growth was observed; this spreading out was carried out on Petri dishes on which an agar was poured prepared from the Mueller Hinton environment. These dishes were then incubated 18 hours. The MBC corresponds to the lowest concentration of peptide for which no bacterial colony was observed on the incubated dishes.
# E. coli = assay type: cell-based; details: gram-negative bacteria, 18 hours incubation, Mueller Hinton
# Description: as §1, §2
sequence,measurement,setting,value
GFWKKVGSAAWGGVKAAAKGAAVGGLNALAKHIQ [papillosin],MBC,S. aureus,0.5 to 1 µM
same,MBC,E. coli,0.25 to 0.5 µM

# From patent US20060205640A1, “Papillosin antimicrobial peptide, a gene coding said peptide, a vector, a transformed organism and a compound containing said organism” (priority 2003, published 2006)
